Experimental data taken from publication PMC6409085, “Three odorant-binding proteins are involved in the behavioral response of Sogatella furcifera to rice plant volatiles” (PeerJ, 2019).
Where “and” joins values, the source holds several entries; their conditions need not be identical. Identical values can stand only once.

Columns and labels:
SfurOBP2 = SfurOBP2 (Sogatella furcifera, UniProt V5T759); experiment: biochemical; assay type: binding
Method in brief: (§1)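 In 50 mM Tris-HCl pH 7.4, odorants displace 1-NPN (2.0 µM) from 2.0 µM protein. Emission at 390–490 nm under 337 nm excitation is measured 2 min after competitor addition, in triplicate. Ki is obtained from IC50 and the 1-NPN dissociation constant.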

SfurOBP1 = SfurOBP1 (Sogatella furcifera, UniProt V5T8N5); experiment: biochemical; assay type: binding; settings: for Fluorescence competitive binding assay, fluorescence intensity: OBP1, three replicate columns
Sequence of SfurOBP1 (V5T8N5 entry or part of it): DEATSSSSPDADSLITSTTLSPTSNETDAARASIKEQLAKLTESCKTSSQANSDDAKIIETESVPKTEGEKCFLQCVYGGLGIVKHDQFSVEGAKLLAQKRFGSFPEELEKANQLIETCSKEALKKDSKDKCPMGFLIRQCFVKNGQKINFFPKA
Method in brief: as §1

SfurOBP3 = SfurOBP3 (Sogatella furcifera, UniProt V5T818); experiment: biochemical; assay type: binding; settings: for Fluorescence competitive binding assay, fluorescence intensity: OBP3, three replicate columns
Sequence of SfurOBP3 (V5T818 entry or part of it): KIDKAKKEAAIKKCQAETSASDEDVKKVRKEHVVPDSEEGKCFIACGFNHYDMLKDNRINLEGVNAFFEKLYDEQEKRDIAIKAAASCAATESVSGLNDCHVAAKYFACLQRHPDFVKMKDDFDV
Method in brief: as §1

SfurOBP11 = SfurOBP11 (Sogatella furcifera, UniProt V5T6E3); experiment: biochemical; assay type: binding
Sequence of SfurOBP11 (V5T6E3 entry or part of it): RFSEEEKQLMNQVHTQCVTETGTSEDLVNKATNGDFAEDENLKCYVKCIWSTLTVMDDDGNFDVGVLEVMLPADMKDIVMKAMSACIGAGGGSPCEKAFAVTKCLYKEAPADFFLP
Method in brief: as §1

S. furcifera adults = experiment: Y-tube olfactometer behavioral trials; assay type: in vivo, Sogatella furcifera; settings: odorant 50 µL/L vs hexane; adults
Method in brief: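 Single S. furcifera adults (2 days post-emergence, starved 0.5 h) chose between odorant (100 µL of 50 µL/L on filter paper) and hexane control in a glass Y-tube, charcoal-filtered humidified air 300 mL/min per arm, 25 ± 1 °C, 50% RH. Choice scored if insect passed half an arm and stayed >1 min within 10 min; 45 insects per compound, chi-squared test.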

Sequence of SfurOBP2 (V5T759 entry or part of it): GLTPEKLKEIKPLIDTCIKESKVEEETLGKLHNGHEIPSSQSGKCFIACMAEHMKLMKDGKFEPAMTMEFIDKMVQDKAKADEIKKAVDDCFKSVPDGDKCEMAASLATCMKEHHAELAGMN

With CCCCCCCCCCCCCCCCCCC [n-nonadecane] the IC50 (SfurOBP2; SfurOBP2, protein and 1-NPN both 2.0 µM, competitor 2-20 µM, read-out: IC50) was > 20 µM, the “Fluorescence competitive binding assay, OBP2 (raw fluorescence reading)” value (SfurOBP2; ligand concentration 2 (unit not given), replicate column 1 of 3) was 22779 and the “Fluorescence competitive binding assay, OBP2 (raw fluorescence reading)” value (SfurOBP2; ligand concentration 2 (unit not given), replicate column 2 of 3) was 20086. The “Fluorescence competitive binding assay, OBP2 (raw fluorescence reading)” value (SfurOBP2; ligand concentration 2 (unit not given), replicate column 3 of 3) was 21018, the “Fluorescence competitive binding assay, OBP2 (raw fluorescence reading)” value (SfurOBP2; ligand concentration 4 (unit not given), replicate column 1 of 3) was 21686 and the “Fluorescence competitive binding assay, OBP2 (raw fluorescence reading)” value (SfurOBP2; ligand concentration 4 (unit not given), replicate column 2 of 3) was 22088. For the same compound, the “Fluorescence competitive binding assay, OBP2 (raw fluorescence reading)” value (SfurOBP2; ligand concentration 4 (unit not given), replicate column 3 of 3) was 20918, the “Fluorescence competitive binding assay, OBP2 (raw fluorescence reading)” value (SfurOBP2; ligand concentration 6 (unit not given), replicate column 1 of 3) was 24120 and the “Fluorescence competitive binding assay, OBP2 (raw fluorescence reading)” value (SfurOBP2; ligand concentration 6 (unit not given), replicate column 2 of 3) was 23625. The “Fluorescence competitive binding assay, OBP2 (raw fluorescence reading)” value (SfurOBP2; ligand concentration 6 (unit not given), replicate column 3 of 3) was 22791, the “Fluorescence competitive binding assay, OBP2 (raw fluorescence reading)” value (SfurOBP2; ligand concentration 8 (unit not given), replicate column 1 of 3) was 22496 and the “Fluorescence competitive binding assay, OBP2 (raw fluorescence reading)” value (SfurOBP2; ligand concentration 8 (unit not given), replicate column 2 of 3) was 24832. The “Fluorescence competitive binding assay, OBP2 (raw fluorescence reading)” value (SfurOBP2; ligand concentration 8 (unit not given), replicate column 3 of 3) was 23266, the “Fluorescence competitive binding assay, OBP2 (raw fluorescence reading)” value (SfurOBP2; ligand concentration 10 (unit not given), replicate column 1 of 3) was 22518 and the “Fluorescence competitive binding assay, OBP2 (raw fluorescence reading)” value (SfurOBP2; ligand concentration 10 (unit not given), replicate column 2 of 3) was 23515. The “Fluorescence competitive binding assay, OBP2 (raw fluorescence reading)” value (SfurOBP2; ligand concentration 10 (unit not given), replicate column 3 of 3) was 22157, the “Fluorescence competitive binding assay, OBP2 (raw fluorescence reading)” value (SfurOBP2; ligand concentration 12 (unit not given), replicate column 1 of 3) was 23732 and the “Fluorescence competitive binding assay, OBP2 (raw fluorescence reading)” value (SfurOBP2; ligand concentration 12 (unit not given), replicate column 2 of 3) was 24191. The “Fluorescence competitive binding assay, OBP2 (raw fluorescence reading)” value (SfurOBP2; ligand concentration 12 (unit not given), replicate column 3 of 3) was 22198, the “Fluorescence competitive binding assay, OBP2 (raw fluorescence reading)” value (SfurOBP2; ligand concentration 14 (unit not given), replicate column 1 of 3) was 22713 and the “Fluorescence competitive binding assay, OBP2 (raw fluorescence reading)” value (SfurOBP2; ligand concentration 14 (unit not given), replicate column 2 of 3) was 20356. The “Fluorescence competitive binding assay, OBP2 (raw fluorescence reading)” value (SfurOBP2; ligand concentration 14 (unit not given), replicate column 3 of 3) was 21973, the “Fluorescence competitive binding assay, OBP2 (raw fluorescence reading)” value (SfurOBP2; ligand concentration 16 (unit not given), replicate column 1 of 3) was 21871 and the “Fluorescence competitive binding assay, OBP2 (raw fluorescence reading)” value (SfurOBP2; ligand concentration 16 (unit not given), replicate column 2 of 3) was 23043. The “Fluorescence competitive binding assay, OBP2 (raw fluorescence reading)” value (SfurOBP2; ligand concentration 16 (unit not given), replicate column 3 of 3) was 23038, the “Fluorescence competitive binding assay, OBP2 (raw fluorescence reading)” value (SfurOBP2; ligand concentration 18 (unit not given), replicate column 1 of 3) was 25864 and the “Fluorescence competitive binding assay, OBP2 (raw fluorescence reading)” value (SfurOBP2; ligand concentration 18 (unit not given), replicate column 2 of 3) was 26767. For the same compound, the “Fluorescence competitive binding assay, OBP2 (raw fluorescence reading)” value (SfurOBP2; ligand concentration 18 (unit not given), replicate column 3 of 3) was 25338, the “Fluorescence competitive binding assay, OBP2 (raw fluorescence reading)” value (SfurOBP2; ligand concentration 20 (unit not given), replicate column 1 of 3) was 26712 and the “Fluorescence competitive binding assay, OBP2 (raw fluorescence reading)” value (SfurOBP2; ligand concentration 20 (unit not given), replicate column 2 of 3) was 23676. The “Fluorescence competitive binding assay, OBP2 (raw fluorescence reading)” value (SfurOBP2; ligand concentration 20 (unit not given), replicate column 3 of 3) was 24323, the “Fluorescence competitive binding assay, fluorescence intensity” value (SfurOBP1; ligand concentration 2 (μM)) was 5361 and 5140 and 5582 and the “Fluorescence competitive binding assay, fluorescence intensity” value (SfurOBP1; ligand concentration 4 (μM)) was 6690 and 6608 and 6742. The “Fluorescence competitive binding assay, fluorescence intensity” value (SfurOBP1; ligand concentration 6 (μM)) was 8870 and 9897 and 7869, the “Fluorescence competitive binding assay, fluorescence intensity” value (SfurOBP1; ligand concentration 8 (μM)) was 7482 and 6593 and 11079 and the “Fluorescence competitive binding assay, fluorescence intensity” value (SfurOBP1; ligand concentration 10 (μM)) was 7327 and 7941 and 8862. For the same compound, the “Fluorescence competitive binding assay, fluorescence intensity” value (SfurOBP1; ligand concentration 12 (μM)) was 8260 and 9027 and 8555, the “Fluorescence competitive binding assay, fluorescence intensity” value (SfurOBP1; ligand concentration 14 (μM)) was 9439 and 7708 and 9780 and the “Fluorescence competitive binding assay, fluorescence intensity” value (SfurOBP1; ligand concentration 16 (μM)) was 8450 and 9204 and 7552. For the same compound, the “Fluorescence competitive binding assay, fluorescence intensity” value (SfurOBP1; ligand concentration 18 (μM)) was 9810 and 13450 and 9951, the “Fluorescence competitive binding assay, fluorescence intensity” value (SfurOBP1; ligand concentration 20 (μM)) was 10406 and 10007 and 8824 and the IC50 (SfurOBP1; SfurOBP1, protein and 1-NPN both 2.0 µM, competitor 2-20 µM, read-out: IC50) was > 20 µM. The “Fluorescence competitive binding assay, fluorescence intensity” value (SfurOBP3; ligand concentration 2) was 81706 and 89895 and 90926, the “Fluorescence competitive binding assay, fluorescence intensity” value (SfurOBP3; ligand concentration 4) was 92466 and 96932 and 93745 and the “Fluorescence competitive binding assay, fluorescence intensity” value (SfurOBP3; ligand concentration 6) was 84153 and 91141 and 92184. For the same compound, the “Fluorescence competitive binding assay, fluorescence intensity” value (SfurOBP3; ligand concentration 8) was 88550 and 83959 and 85903, the “Fluorescence competitive binding assay, fluorescence intensity” value (SfurOBP3; ligand concentration 10) was 84955 and 81246 and 84347 and the “Fluorescence competitive binding assay, fluorescence intensity” value (SfurOBP3; ligand concentration 12) was 79099 and 81968 and 85076. For the same compound, the “Fluorescence competitive binding assay, fluorescence intensity” value (SfurOBP3; ligand concentration 14) was 78930 and 78937 and 80614, the “Fluorescence competitive binding assay, fluorescence intensity” value (SfurOBP3; ligand concentration 16) was 67688 and 71739 and 72376 and the “Fluorescence competitive binding assay, fluorescence intensity” value (SfurOBP3; ligand concentration 18) was 93819 and 87996 and 91999. The “Fluorescence competitive binding assay, fluorescence intensity” value (SfurOBP3; ligand concentration 20) was 87679 and 80588 and 71651, the IC50 (SfurOBP3; SfurOBP3, protein and 1-NPN both 2.0 µM, competitor 2-20 µM, read-out: IC50) was > 20 µM and the IC50 (SfurOBP11; SfurOBP11, protein and 1-NPN both 2.0 µM, competitor 2-20 µM, read-out: IC50) was > 20 µM. For the same compound, the “Fluorescence intensity, fluorescence competitive binding assay, OBP11” value (“Fluorescence intensity … OBP11” below) (SfurOBP11; ligand concentration 2, replicate 1) was 39005, the “Fluorescence intensity … OBP11” value (SfurOBP11; ligand concentration 2, replicate 2) was 36085 and the “Fluorescence intensity … OBP11” value (SfurOBP11; ligand concentration 2, replicate 3) was 36144. The “Fluorescence intensity … OBP11” value (SfurOBP11; ligand concentration 4, replicate 1) was 38725, the “Fluorescence intensity … OBP11” value (SfurOBP11; ligand concentration 4, replicate 2) was 39209 and the “Fluorescence intensity … OBP11” value (SfurOBP11; ligand concentration 4, replicate 3) was 36494. For the same compound, the “Fluorescence intensity … OBP11” value (SfurOBP11; ligand concentration 6, replicate 1) was 38941, the “Fluorescence intensity … OBP11” value (SfurOBP11; ligand concentration 6, replicate 2) was 37869 and the “Fluorescence intensity … OBP11” value (SfurOBP11; ligand concentration 6, replicate 3) was 35504. For the same compound, the “Fluorescence intensity … OBP11” value (SfurOBP11; ligand concentration 8, replicate 1) was 38326, the “Fluorescence intensity … OBP11” value (SfurOBP11; ligand concentration 8, replicate 2) was 38320 and the “Fluorescence intensity … OBP11” value (SfurOBP11; ligand concentration 8, replicate 3) was 34260. The “Fluorescence intensity … OBP11” value (SfurOBP11; ligand concentration 10, replicate 1) was 39470, the “Fluorescence intensity … OBP11” value (SfurOBP11; ligand concentration 10, replicate 2) was 35190 and the “Fluorescence intensity … OBP11” value (SfurOBP11; ligand concentration 10, replicate 3) was 34723. For the same compound, the “Fluorescence intensity … OBP11” value (SfurOBP11; ligand concentration 12, replicate 1) was 35740, the “Fluorescence intensity … OBP11” value (SfurOBP11; ligand concentration 12, replicate 2) was 35339 and the “Fluorescence intensity … OBP11” value (SfurOBP11; ligand concentration 12, replicate 3) was 34546. For the same compound, the “Fluorescence intensity … OBP11” value (SfurOBP11; ligand concentration 14, replicate 1) was 33030, the “Fluorescence intensity … OBP11” value (SfurOBP11; ligand concentration 14, replicate 2) was 32494 and the “Fluorescence intensity … OBP11” value (SfurOBP11; ligand concentration 14, replicate 3) was 31487. The “Fluorescence intensity … OBP11” value (SfurOBP11; ligand concentration 16, replicate 1) was 29383, the “Fluorescence intensity … OBP11” value (SfurOBP11; ligand concentration 16, replicate 2) was 30154 and the “Fluorescence intensity … OBP11” value (SfurOBP11; ligand concentration 16, replicate 3) was 29504. The “Fluorescence intensity … OBP11” value (SfurOBP11; ligand concentration 18, replicate 1) was 32894, the “Fluorescence intensity … OBP11” value (SfurOBP11; ligand concentration 18, replicate 2) was 34140 and the “Fluorescence intensity … OBP11” value (SfurOBP11; ligand concentration 18, replicate 3) was 29208. For the same compound, the “Fluorescence intensity … OBP11” value (SfurOBP11; ligand concentration 20, replicate 1) was 31537, the “Fluorescence intensity … OBP11” value (SfurOBP11; ligand concentration 20, replicate 2) was 29929 and the “Fluorescence intensity … OBP11” value (SfurOBP11; ligand concentration 20, replicate 3) was 28655. The “number of insects choosing hexane arm” value (S. furcifera adults) was 13, the “number of insects choosing volatilies arm” value (S. furcifera adults) was 15 and the “number of insects failed (no choice)” value (S. furcifera adults) was 12.
